Results reported in US8722727B2, “Antifungal agents” (Seynix, Inc., priority 2008, dated 2014).

Target: T1, glucan synthase (GS) (Candida albicans, UniProt O13428)
T1 construct: Extraction of GS activity from membranes was performed at a protein concentration of 5 mg/mL in extraction buffer; endogenous in cells; host or cells: Candida albicans MY1055 (membrane fraction, detergent extraction, product entrapment)
Assay: Glucan synthase inhibition (polymerization assay, 96-well)
Assay type: biochemical
Conditions: glucan synthase prepared from Candida albicans MY1055; 60 min incubation at 22° C.; read-out: Candida Albicans GS IC50 (ng/mL) (converted)
How it was run: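 Partially purified membrane glucan synthase from C. albicans MY1055, 60 min at 22° C with 0.5 mM 3H-UDPG, 25 μM GTP-γ-S, pH 7.5 HEPES, 25 mM KF. TCA-precipitated glucan filtered and scintillation counted; IC50 (ng/mL) from sigmoidal fit of duplicates over 3-fold dilutions.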

T1 sequence (O13428 1-1897): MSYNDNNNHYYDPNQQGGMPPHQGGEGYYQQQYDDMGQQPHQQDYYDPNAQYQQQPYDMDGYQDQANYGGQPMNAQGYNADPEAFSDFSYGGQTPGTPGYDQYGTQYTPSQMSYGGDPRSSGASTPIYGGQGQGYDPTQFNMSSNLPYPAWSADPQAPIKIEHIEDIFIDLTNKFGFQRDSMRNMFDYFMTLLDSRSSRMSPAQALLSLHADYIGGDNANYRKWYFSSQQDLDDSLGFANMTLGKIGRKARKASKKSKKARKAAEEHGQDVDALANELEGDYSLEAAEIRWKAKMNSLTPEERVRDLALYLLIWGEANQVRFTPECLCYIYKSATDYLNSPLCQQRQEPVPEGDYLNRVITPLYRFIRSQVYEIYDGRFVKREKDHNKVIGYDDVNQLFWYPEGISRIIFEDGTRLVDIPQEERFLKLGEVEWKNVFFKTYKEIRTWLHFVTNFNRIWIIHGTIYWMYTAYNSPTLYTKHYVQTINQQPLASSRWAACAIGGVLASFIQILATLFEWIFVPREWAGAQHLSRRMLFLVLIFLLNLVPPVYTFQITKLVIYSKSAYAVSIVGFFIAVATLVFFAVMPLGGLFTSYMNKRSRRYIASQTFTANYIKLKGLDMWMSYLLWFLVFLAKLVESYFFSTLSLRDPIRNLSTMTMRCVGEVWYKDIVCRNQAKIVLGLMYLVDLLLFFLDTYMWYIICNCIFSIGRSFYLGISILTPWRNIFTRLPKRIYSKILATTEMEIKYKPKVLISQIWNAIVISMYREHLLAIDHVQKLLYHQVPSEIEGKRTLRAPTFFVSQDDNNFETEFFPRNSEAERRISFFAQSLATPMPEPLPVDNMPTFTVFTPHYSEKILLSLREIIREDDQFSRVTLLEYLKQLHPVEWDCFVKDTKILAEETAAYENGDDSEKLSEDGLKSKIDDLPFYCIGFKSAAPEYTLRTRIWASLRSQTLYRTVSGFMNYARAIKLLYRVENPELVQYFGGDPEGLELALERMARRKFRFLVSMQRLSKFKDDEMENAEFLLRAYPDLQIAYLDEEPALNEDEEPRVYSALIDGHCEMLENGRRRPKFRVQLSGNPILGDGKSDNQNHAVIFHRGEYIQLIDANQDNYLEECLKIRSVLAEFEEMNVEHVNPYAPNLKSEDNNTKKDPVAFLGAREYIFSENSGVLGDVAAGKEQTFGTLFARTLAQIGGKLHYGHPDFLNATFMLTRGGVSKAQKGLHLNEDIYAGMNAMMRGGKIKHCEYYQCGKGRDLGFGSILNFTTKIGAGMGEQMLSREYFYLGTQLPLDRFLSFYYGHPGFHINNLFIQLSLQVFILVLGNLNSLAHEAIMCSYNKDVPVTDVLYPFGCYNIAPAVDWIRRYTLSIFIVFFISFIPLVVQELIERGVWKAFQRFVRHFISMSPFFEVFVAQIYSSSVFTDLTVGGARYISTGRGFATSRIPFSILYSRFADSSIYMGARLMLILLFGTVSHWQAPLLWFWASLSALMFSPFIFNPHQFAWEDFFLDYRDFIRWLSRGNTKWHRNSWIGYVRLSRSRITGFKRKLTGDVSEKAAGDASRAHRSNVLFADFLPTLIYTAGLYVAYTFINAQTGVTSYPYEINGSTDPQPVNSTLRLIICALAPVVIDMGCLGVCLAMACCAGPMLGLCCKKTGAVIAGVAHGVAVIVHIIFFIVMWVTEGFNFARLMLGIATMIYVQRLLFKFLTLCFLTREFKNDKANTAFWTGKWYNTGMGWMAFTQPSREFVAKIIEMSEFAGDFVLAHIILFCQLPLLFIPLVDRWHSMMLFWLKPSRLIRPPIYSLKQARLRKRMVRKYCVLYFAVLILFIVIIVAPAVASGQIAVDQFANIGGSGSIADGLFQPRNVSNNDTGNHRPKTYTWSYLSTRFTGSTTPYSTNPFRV
T1 sequence (O42825 1-195 partner limits assumed): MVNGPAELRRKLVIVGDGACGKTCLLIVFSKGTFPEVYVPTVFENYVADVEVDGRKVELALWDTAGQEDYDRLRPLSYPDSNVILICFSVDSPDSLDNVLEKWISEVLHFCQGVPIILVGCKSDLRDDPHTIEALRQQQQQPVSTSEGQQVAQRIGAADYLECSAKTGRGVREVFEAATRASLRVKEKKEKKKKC

| SMILES | IC50 [nM] |
| --- | --- |
| CC(C)N[C@@](C)(CO[C@H]1[C@H](n2nnc(N)n2)C[C@@]23COC[C@]1(C)[C@@H]2CC[C@H]1C3=CC[C@@]2(C)[C@H](C(=O)O)[C@@](C)([C@H](C)C(C)C)CC[C@]12C)C(C)C [Example 57, (1S,4aR,6aS,7R,8R,10aR,10bR,12aR,14R,15R)-14-(5-amino-2H-tetrazol-2-yl)-15-[[(2R)-2,3-dimethyl-2-[(1-methylethyl)amino]butyl]oxy]-8-[(1R)-1,2-dimethylpropyl]-1,6,6a,7,8,9,10,10a,10b,11,12,12a-dodecahydro-1,6a,8,10a-tetramethyl-4H-1,4a-propano-2H-phenanthro[1,2-c]pyran-7-carboxylic acid] | 8.61 |
| CC(C)[C@@H](C)[C@@]1(C)CC[C@]2(C)[C@H]3CC[C@@H]4[C@@]5(COC[C@@]4(C)[C@@H](OC[C@](C)(NCc4ccccc4)C(C)C)[C@H](n4nnc(N)n4)C5)C3=CC[C@@]2(C)[C@@H]1C(=O)O [Example 61, (1S,4aR,6aS,7R,8R,10aR,10bR,12aR,14R,15R)-14-(5-amino-2H-tetrazol-2-yl)-15-[[(2R)-2,3-dimethyl-2-[(phenylmethyl)amino]butyl]oxy]-8-[(1R)-1,2-dimethylpropyl]-1,6,6a,7,8,9,10,10a,10b,11,12,12a-dodecahydro-1,6a,8,10a-tetramethyl-4H-1,4a-propano-2H-phenanthro[1,2-c]pyran-7-carboxylic acid] | 10.7 |
| CCCN(C)[C@](C)(CO[C@H]1[C@H](n2nnc(N)n2)C[C@@]23COC[C@]1(C)[C@@H]2CC[C@H]1C3=CC[C@@]2(C)[C@H](C(=O)O)[C@@](C)([C@H](C)C(C)C)CC[C@]12C)C(C)C [Example 69, (1S,4aR,6aS,7R,8R,10aR,10bR,12aR,14R,15R)-14-(5-amino-2H-tetrazol-2-yl)-15-[[(2S)-2,3-dimethyl-2-(methylpropylamino)butyl]oxy]-8-[(1R)-1,2-dimethylpropyl]-1,6,6a,7,8,9,10,10a,10b,11,12,12a-dodecahydro-1,6a,8,10a-tetramethyl-4H-1,4a-propano-2H-phenanthro[1,2-c]pyran-7-carboxylic acid] | 28.1 |
| CCCCN[C@](C)(CO[C@H]1[C@H](n2nnc(N)n2)C[C@@]23COC[C@]1(C)[C@@H]2CC[C@H]1C3=CC[C@@]2(C)[C@H](C(=O)O)[C@@](C)([C@H](C)C(C)C)CC[C@]12C)C(C)C [Example 71, (1S,4aR,6aS,7R,8R,10aR,10bR,12aR,14R,15R)-14-(5-amino-2H-tetrazol-2-yl)-15-[[(2S)-2-(butylamino)-2,3-dimethylbutyl]oxy]-8-[(1R)-1,2-dimethylpropyl]-1,6,6a,7,8,9,10,10a,10b,11,12,12a-dodecahydro-1,6a,8,10a-tetramethyl-4H-1,4a-propano-2H-phenanthro[1,2-c]pyran-7-carboxylic acid] | 12.7 |
| CCC[C@H](CO[C@H]1[C@H](n2nnc(N)n2)C[C@@]23COC[C@]1(C)[C@@H]2CC[C@H]1C3=CC[C@@]2(C)[C@H](C(=O)O)[C@@](C)([C@H](C)C(C)C)CC[C@]12C)N(C)C [Example 77, (1S,4aR,6aS,7R,8R,10aR,10bR,12aR,14R,15R)-14-(5-amino-2H-tetrazol-2-yl)-15-[[(2R)-2-(dimethylamino)pentyl]oxy]-8-[(1R)-1,2-dimethylpropyl]-1,6,6a,7,8,9,10,10a,10b,11,12,12a-dodecahydro-1,6a,8,10a-tetramethyl-4H-1,4a-propano-2H-phenanthro[1,2-c]pyran-7-carboxylic acid] | 20.9 |
| CC(C)[C@@H](C)[C@@]1(C)CC[C@]2(C)[C@H]3CC[C@@H]4[C@@]5(COC[C@@]4(C)[C@@H](OC[C@H](N)c4ccccc4)[C@H](n4nnc(N)n4)C5)C3=CC[C@@]2(C)[C@@H]1C(=O)O [Example 88, (1S,4aR,6aS,7R,8R,10aR,10bR,12aR,14R,15R)-14-(5-amino-2H-tetrazol-2-yl)-15-[(2R)-2-amino-2-phenylethoxy]-8-[(1R)-1,2-dimethylpropyl]-1,6,6a,7,8,9,10,10a,10b,11,12,12a-dodecahydro-1,6a,8,10a-tetramethyl-4H-1,4a-propano-2H-phenanthro[1,2-c]pyran-7-carboxylic acid] | 26.7 |
| CC(C)[C@@H](C)[C@@]1(C)CC[C@]2(C)[C@H]3CC[C@@H]4[C@@]5(COC[C@@]4(C)[C@@H](OCCN)[C@H](n4cnnn4)C5)C3=CC[C@@]2(C)[C@@H]1C(=O)O [Example 104, (1S,4aR,6aS,7R,8R,10aR,10bR,12aR,14R,15R)-15-(2-aminoethoxy)-8-[(1R)-1,2-dimethylpropyl]-14-(1H-tetrazol-1-yl)-1,6,6a,7,8,9,10,10a,10b,11,12,12a-dodecahydro-1,6a,8,10a-tetramethyl-4H-1,4a-propano-2H-phenanthro[1,2-c]pyran-7-carboxylic acid] | 118 |
| CCNC(C)(COC1C(n2ncnn2)CC23COCC1(C)C2CCC1C3=CCC2(C)C(C(=O)O)C(C)(C(C)C(C)C)CCC12C)C(C)C [Example 109, (1S,4aR,6aS,7R,8R,10aR,10bR,12aR,14R,15R)-8-[(1R)-1,2-dimethylpropyl]-15-[[(25)-2-(ethylamino)-2,3-dimethylbutyl]oxy]-14-(2H-tetrazol-2-yl)-1,6,6a,7,8,9,10,10a,10b,11,12,12a-dodecahydro-1,6a,8,10a-tetramethyl-4H-1,4a-propano-2H-phenanthro[1,2-c]pyran-7-carboxylic acid] | 46.4 |
| CN[C@](C)(CO[C@H]1[C@H](n2nnc(N)n2)C[C@@]23COC[C@]1(C)[C@@H]2CC[C@H]1C3=CC[C@@]2(C)[C@H](C(=O)O)[C@@](C)([C@H](C)C(C)C)CC[C@]12C)C(C)(C)C [Example 112, (1S,4aR,6aS,7R,8R,10aR,10bR,12aR,14R,15R)-14-(5-amino-2H-tetrazol-2-yl)-8-[(1R)-1,2-dimethylpropyl]-15-[[(2S)-2,3,3-trimethyl-2-(methylamino)butyl]oxy]-1,6,6a,7,8,9,10,10a,10b,11,12,12a-dodecahydro-1,6a,8,10a-tetramethyl-4H-1,4a-propano-2H-phenanthro[1,2-c]pyran-7-carboxylic acid] | 8.78 |

Continued, values first:

| IC50 [nM] | SMILES |
| --- | --- |
| 5.98 | CC(C)[C@@H](C)[C@@]1(C)CC[C@]2(C)[C@H]3CC[C@@H]4[C@@]5(COC[C@@]4(C)[C@@H](OC[C@@H](C(C)C)N(C)C)[C@H](n4nnc(N)n4)C5)C3=CC[C@@]2(C)[C@@H]1C(=O)O [Example 80, (1S,4aR,6aS,7R,8R,10aR,10bR,12aR,14R,15R)-14-(5-amino-2H-tetrazol-2-yl)-15-[[(2R)-2-(dimethylamino)-3-methylbutyl]oxy]-8-[(1R)-1,2-dimethylpropyl]-1,6,6a,7,8,9,10,10a,10b,11,12,12a-dodecahydro-1,6a,8,10a-tetramethyl-4H-1,4a-propano-2H-phenanthro[1,2-c]pyran-7-carboxylic acid] |
| 16.5 | CC(C)[C@@H](C)[C@@]1(C)CC[C@]2(C)[C@H]3CC[C@@H]4[C@@]5(COC[C@@]4(C)[C@@H](OC[C@@H](C4CC4)N(C)C)[C@H](n4nnc(N)n4)C5)C3=CC[C@@]2(C)[C@@H]1C(=O)O [Example 83, (1S,4aR,6aS,7R,8R,10aR,10bR,12aR,14R,15R)-14-(5-amino-2H-tetrazol-2-yl)-15-[(2R)-2-cyclopropyl-2-(dimethylamino)ethoxy]-8-[(1R)-1,2-dimethylpropyl]-1,6,6a,7,8,9,10,10a,10b,11,12,12a-dodecahydro-1,6a,8,10a-tetramethyl-4H-1,4a-propano-2H-phenanthro[1,2-c]pyran-7-carboxylic acid] |
| 9.36 | CC(C)[C@H](N)CO[C@H]1[C@H](n2nnc(N)n2)C[C@@]23COC[C@]1(C)[C@@H]2CC[C@H]1C3=CC[C@@]2(C)[C@H](C(=O)O)[C@@](C)([C@H](C)C(C)C)CC[C@]12C [Example 93, (1S,4aR,6aS,7R,8R,10aR,10bR,12aR,14R,15R)-14-(5-amino-2H-tetrazol-2-yl)-15-[[(2S)-2-amino-3-methylbutyl]oxy]-8-[(1R)-1,2-dimethylpropyl]-1,6,6a,7,8,9,10,10a,10b,11,12,12a-dodecahydro-1,6a,8,10a-tetramethyl-4H-1,4a-propano-2H-phenanthro[1,2-c]pyran-7-carboxylic acid] |
| 13.2 | CCN[C@H](CO[C@H]1[C@H](n2nnc(N)n2)C[C@@]23COC[C@]1(C)[C@@H]2CC[C@H]1C3=CC[C@@]2(C)[C@H](C(=O)O)[C@@](C)([C@H](C)C(C)C)CC[C@]12C)C(C)(C)C [Example 97, (1S,4aR,6aS,7R,8R,10aR,10bR,12aR,14R,15R)-14-(5-amino-2H-tetrazol-2-yl)-15-[[(2S)-2-(ethylamino)-3,3-dimethylbutyl]oxy]-8-[(1R)-1,2-dimethylpropyl]-1,6,6a,7,8,9,10,10a,10b,11,12,12a-dodecahydro-1,6a,8,10a-tetramethyl-4H-1,4a-propano-2H-phenanthro[1,2-c]pyran-7-carboxylic acid] |
| 11.7 | CC[C@H](C)[C@@H](CO[C@H]1[C@H](n2nnc(N)n2)C[C@@]23COC[C@]1(C)[C@@H]2CC[C@H]1C3=CC[C@@]2(C)[C@H](C(=O)O)[C@@](C)([C@H](C)C(C)C)CC[C@]12C)N(C)C [Example 101, (1S,4aR,6aS,7R,8R,10aR,10bR,12aR,14R,15R)-14-(5-amino-2H-tetrazol-2-yl)-15-[[(2S,3S)-2-(dimethylamino)-3-methylpentyl]oxy]-8-[(1R)-1,2-dimethylpropyl]-1,6,6a,7,8,9,10,10a,10b,11,12,12a-dodecahydro-1,6a,8,10a-tetramethyl-4H-1,4a-propano-2H-phenanthro[1,2-c]pyran-7-carboxylic acid] |
| 19.1 | CC(C)[C@@H](C)[C@@]1(C)CC[C@]2(C)[C@H]3CC[C@@H]4[C@@]5(COC[C@@]4(C)[C@@H](OCCN(C)C)[C@H](n4nnc(N)n4)C5)C3=CC[C@@]2(C)[C@@H]1C(=O)O [Example 114, (1S,4aR,6aS,7R,8R,10aR,10bR,12aR,14R,15R)-14-(5-amino-2H-tetrazol-2-yl)-15-[2-(dimethylamino)ethoxy]-8-[(1R)-1,2-dimethylpropyl]-1,6,6a,7,8,9,10,10a,10b,11,12,12a-dodecahydro-1,6a,8,10a-tetramethyl-4H-1,4a-propano-2H-phenanthro[1,2-c]pyran-7-carboxylic acid] |
